Results as given in patent US7217704B2, “LPA receptor agonists and antagonists and methods of use” (The University of Tennessee Research Foundation, priority 2003, dated 2007).
“Also recorded” adds a separate entry of the source. Like-named read-outs stand apart in the source and are kept apart here.

Experiments:
PC-3 cells = test: Ca2+ transients in PC-3 cells endogenously expressing LPA1-3; assay type: cell-based, human
Procedure: (§1) The culture medium (DMEM containing 10% FBS) was then replaced with modified Krebs solution (120 mM NaCl, 5 mM KCl, 0.62 mM MgSO4, 1.8 mM CaCl2, 10 mM HEPES, 6 mM glucose, pH 7.4) and the cells were serum starved for 6–8 hours (12 h for PC-3 cells). Cells were loaded with Fura-2 AM for 35 minutes in modified Krebs medium. The Fura-2 was removed before loading the plate in the FlexStation instrument by replacing the medium once again with 100 μl modified Krebs medium/well. Plates were incubated for 4 minutes in the instrument to allow for warming to 37° C. Changes in intracellular Ca^2+ concentration were monitored by measuring the ratio of emitted light intensity at 520 nm in response to excitation by 340 nm and 380 nm wavelength lights, respectively. Each well was monitored for 80–120 seconds. […] Time courses were recorded using the SoftMax Pro software (Molecular Devices, Sunnyvale, Calif.). Ca^2+ transients were quantified automatically by calculating the difference between maximum and baseline ratio values for each well.
We tested the FAP analogs in PC-3 cells, which unlike the transfected RH7777 cells endogenously express LPA1-3 receptors.

LPA2 [1] = target: T1, LPA2 (Homo sapiens, UniProt Q9HBW0); test: Ca2+ transients (agonism / inhibition of LPA response) in RH7777 cells stably expressing LPA2; assay type: cell-based
T1 construct: expressed in transfected cells
T1 sequence (Q9HBW0 whole entry): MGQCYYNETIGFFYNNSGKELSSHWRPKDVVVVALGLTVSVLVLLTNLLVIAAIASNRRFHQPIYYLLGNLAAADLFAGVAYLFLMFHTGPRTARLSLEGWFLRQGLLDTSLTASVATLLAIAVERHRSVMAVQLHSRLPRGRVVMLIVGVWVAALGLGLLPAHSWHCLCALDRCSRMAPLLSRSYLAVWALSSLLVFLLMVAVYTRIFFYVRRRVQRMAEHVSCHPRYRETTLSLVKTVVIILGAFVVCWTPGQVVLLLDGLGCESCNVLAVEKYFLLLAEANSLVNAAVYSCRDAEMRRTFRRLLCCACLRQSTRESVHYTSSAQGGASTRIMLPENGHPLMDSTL
Procedure: as §1
(§2) Each FAP analog was tested for the ability to induce Ca^2+ transients in RH7777 cells transfected with LPA1-3 receptors (agonism), as well as the ability to inhibit LPAinduced Ca^2+ transients in the same cells (antagonism) (Table 3).

LPA3 [2] = target: T2, LPA3 (Homo sapiens, UniProt Q9UBY5); test: Ca2+ transients (agonism / inhibition of LPA response) in RH7777 cells stably expressing LPA3; assay type: cell-based; conditions: for effect at LPA3 in words: Ca2+ transients
T2 construct: expressed in transfected cells
T2 sequence (Q9UBY5 1-353): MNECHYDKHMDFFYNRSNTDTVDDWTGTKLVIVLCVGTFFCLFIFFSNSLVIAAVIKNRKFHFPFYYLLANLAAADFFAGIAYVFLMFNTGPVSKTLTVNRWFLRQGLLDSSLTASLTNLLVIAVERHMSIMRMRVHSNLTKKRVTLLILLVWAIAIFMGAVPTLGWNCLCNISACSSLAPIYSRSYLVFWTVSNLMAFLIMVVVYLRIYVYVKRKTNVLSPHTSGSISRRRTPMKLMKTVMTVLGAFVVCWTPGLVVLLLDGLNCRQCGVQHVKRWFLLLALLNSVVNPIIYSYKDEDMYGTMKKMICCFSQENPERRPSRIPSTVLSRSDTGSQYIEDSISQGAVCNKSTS
Procedure: as §1, §2

LPA1 [3] = target: T3, LPA1 (Homo sapiens, UniProt Q92633); test: Ca2+ transients (agonism / inhibition of LPA response) in RH7777 cells stably expressing LPA1; assay type: cell-based; conditions: for effect at LPA1 in words: Ca2+ transients
T3 construct: expressed in transfected cells
T3 sequence (Q92633 whole entry): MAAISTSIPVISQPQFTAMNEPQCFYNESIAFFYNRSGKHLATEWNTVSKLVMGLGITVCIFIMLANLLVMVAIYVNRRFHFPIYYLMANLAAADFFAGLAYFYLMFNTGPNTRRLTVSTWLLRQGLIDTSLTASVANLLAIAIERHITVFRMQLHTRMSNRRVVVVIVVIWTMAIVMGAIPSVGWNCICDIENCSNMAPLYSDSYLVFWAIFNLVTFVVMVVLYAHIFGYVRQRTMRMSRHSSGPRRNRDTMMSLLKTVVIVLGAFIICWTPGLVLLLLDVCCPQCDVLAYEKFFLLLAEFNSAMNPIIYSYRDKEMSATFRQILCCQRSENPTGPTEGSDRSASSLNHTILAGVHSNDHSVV
Procedure: as §1, §2

LPA1 [4] = target: T3, LPA1; conditions: RH7777 cells expressing LPA1; previously reported in Virag et al. (2003); cited from earlier work
LPA3 [5] = target: T2, LPA3; conditions: RH7777 cells expressing LPA3; previously reported in Virag et al. (2003); cited from earlier work
LPA2 [6] = target: T1, LPA2; conditions: RH7777 cells expressing LPA2; previously reported in Virag et al. (2003); cited from earlier work
PPARγ = target: T4, PPARγ (Homo sapiens, UniProt P37231); test: PPARγ activation in CV1 cells, PPRE-Acox-Rluc reporter gene assay; conditions: 10 μM test compound, 20 h
T4 sequence (P37231 1-505): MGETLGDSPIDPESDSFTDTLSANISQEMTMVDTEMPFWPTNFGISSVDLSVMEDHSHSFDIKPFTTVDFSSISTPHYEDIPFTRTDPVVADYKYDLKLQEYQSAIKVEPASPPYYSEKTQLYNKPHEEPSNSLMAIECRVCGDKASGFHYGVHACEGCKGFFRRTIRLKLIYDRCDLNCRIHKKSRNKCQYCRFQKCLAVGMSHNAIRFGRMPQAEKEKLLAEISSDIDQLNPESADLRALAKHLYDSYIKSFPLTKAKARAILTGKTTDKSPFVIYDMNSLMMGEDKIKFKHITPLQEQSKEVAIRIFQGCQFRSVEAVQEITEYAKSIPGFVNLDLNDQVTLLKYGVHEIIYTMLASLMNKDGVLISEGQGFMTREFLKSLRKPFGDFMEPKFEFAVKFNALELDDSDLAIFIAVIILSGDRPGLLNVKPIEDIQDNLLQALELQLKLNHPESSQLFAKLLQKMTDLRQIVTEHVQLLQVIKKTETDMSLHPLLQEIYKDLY
Procedure: Comparing the effects with the Rosiglitazone, a known PPARγ agonist, CV1 cells were treated with 1% DMSO or 10 μM of test compound dissolved in DMSO for 20 h. Luciferase and β-galactosidase activities (mean±SEM) were measured in the cell lysate (n=4). *P<0.05 and **P<0.01, significant differences over vehicle control.
The assay of PPARγ activation in CV1 cells was run as reported in Zhang et al. Briefly, CV-1 cells were plated in 96-well plates (5×10^3 cells per well) in Dulbecco's modified Eagle's medium supplemented with 10% fetal bovine serum. […] Samples were run in quadruplicate and the mean±standard errors were calculated. Data are representative of at least two independent transfections. Student's t-test was used for null hypothesis testing and P<0.05 was considered transfection, cells were treated with 1% FBS supplemented OptiMEMI (Invitrogen) containing DMSO or 10 μM test compound dissolved in DMSO for 20 h. Luciferase and β-galactosidase activities were measured with the Steady-Glo® Luciferase Assay significant (in the figures P<0.05 is denoted by * and P<0.01 is **).

[7] = Homo sapiens, PC-3, read-out: PC-3 IC50
[8] = inhibition of LPA-induced Ca2+ transients, PC-3 cells
[9] = inhibition of LPA-induced Ca2+ transients, RH7777 cells expressing LPA3, read-out: LPA3 (Ki)
[10] = inhibition of LPA-induced Ca2+ transients, RH7777 cells expressing LPA3, read-out: LPA3 IC50
[11] = Homo sapiens, inhibition of LPA-induced Ca2+ transients, PC-3 cells, read-out: PC-3 IC50
[12] = inhibition of LPA-induced Ca2+ transients, RH7777 cells expressing LPA2, read-out: LPA2 IC50
[13] = induction of Ca2+ transients, RH7777 cells expressing LPA3, read-out: LPA3 EC50
[14] = induction of Ca2+ transients, RH7777 cells expressing LPA1, read-out: LPA1 EC50
[15] = inhibition of LPA-induced Ca2+ transients, PC-3 cells, read-out: PC-3 IC50
[16] = induction of Ca2+ transients, RH7777 cells expressing LPA2, read-out: LPA2 EC50
[17] = inhibition of LPA-induced Ca2+ transients, RH7777 cells expressing LPA1, read-out: LPA1 IC50

Structure (SMILES)	Ki (PC-3 cells; [8])	Ki (LPA3 [2]; [9])	IC50 (LPA3 [2]; [10])	IC50 (LPA2 [1]; [12])	EC50 (LPA3 [2]; [13])	EC50 (LPA1 [3]; [14])	IC50 (PC-3 cells; [15])	EC50 (LPA2 [1]; [16])	IC50 (LPA1 [3]; [17])	also measured
C=CCCCCCCCCOP(O)(O)=S [Compound 8d, Thiophosphoric acid O-dec-9-enyl ester]	0.533 µM	0.128 µM	0.34 µM							IC50 (PC-3 cells; [7]): 1 µM; IC50 (LPA2 [1]): > 30 µM; Emax (LPA2 [1]; RH7777, read-out: LPA2 (Emax)): 56%; EC50 (LPA3 [2]): > 30 µM; EC50 (LPA1 [3]): > 30 µM; IC50 (LPA1 [3]): > 30 µM
C=CCCCCCCCCOP(=O)(O)O [Compound 5a, Phosphoric acid monodec-9-enyl ester]	0.574 µM	0.504 µM	0.77 µM	> 30 µM	> 30 µM	> 30 µM				IC50 (PC-3 cells; [11]): 1.51 µM; Emax (LPA2 [1]; RH7777, maximal efficacy of the drug/maximal efficacy of LPA 18:1, read-out: LPA2 (Emax)): 100%
CCCCCCCCCCP(=O)(O)O [Compound 9a, n-decyl-phosphonate]	1.5 µM	0.068 µM	1.2 µM	> 30 µM	> 30 µM	> 30 µM	3.12 µM	> 30 µM	> 30 µM	
CCCCCC=CCCCOP(=O)(O)O [Compound 5b, Phosphoric acid monodec-4-enyl ester]	0.735 µM			> 30 µM		> 30 µM		> 10 µM	> 10 µM	IC50 (PC-3 cells; [11]): 1.3 µM; EC50 (LPA3 [2]): > 30 µM; IC50 (LPA3 [2]): 0.83 µM; Ki (LPA3 [2]): 0.37 µM
CCCCCCCCCCCCCCOP(=O)(O)O [Compound 2c]										EC50 (LPA1 [4]): > 30 µM; EC50 (LPA3 [5]): > 30 µM; EC50 (LPA2 [6]): > 30 µM; IC50 (LPA2 [6]): > 30 µM
CCCCCCCCC=CCCCCCCCCOP(=O)(O)O [Compound 5f, Phosphoric acid monooctadec-9-enyl ester]			> 30 µM	> 30 µM	> 30 µM	> 30 µM		> 30 µM	> 30 µM	Emax (PC-3 cells; Homo sapiens, PC-3, maximal efficacy of the drug/maximal efficacy of LPA 18:1, read-out: PC-3 (Emax)): 11%; effect at LPA3 in words (LPA3 [2]; RH7777 cells expressing LPA3): did not inhibit nor did it activate Ca^2+ mobilization; also recorded: potentiated LPA response; effect at LPA1 in words (LPA1 [3]; RH7777 cells expressing LPA1): did not inhibit nor did it activate Ca^2+ mobilization; also recorded: potentiated LPA response
CCCCC=CCCCCCCCCOP(O)(O)=S [Compound 8f, Thiophosphoric acid O-tetradec-9-enyl ester]	0.397 µM									effect in PC-3 cells in words (PC-3 cells; Ca2+ transients, PC-3 cells): both independent activation and inhibition of LPA-induced Ca^2+ transients; Emax (PC-3 cells; Homo sapiens, PC-3, read-out: PC-3 (Emax)): 40%; IC50 (PC-3 cells; [7]): 0.938 µM; EC50 (LPA2 [1]): 0.48 µM; IC50 (LPA2 [1]): > 30 µM; Emax (LPA2 [1]; RH7777, read-out: LPA2 (Emax)): 150%; EC50 (LPA3 [2]): > 30 µM; IC50 (LPA3 [2]): 0.028 µM; Ki (LPA3 [2]): 0.014 µM; EC50 (LPA1 [3]): > 30 µM; IC50 (LPA1 [3]): > 30 µM; effect at LPA1 in words (LPA1 [3]; RH7777 cells expressing LPA1): no effect on the LPA-induced Ca^2+ mobilization
CCCCCCCCCCCCP(=O)(O)O [Compound 9b, n-dodecyl-phosphonate]	1.27 µM	0.303 µM	0.654 µM	> 30 µM	> 30 µM	> 30 µM	2.64 µM	> 30 µM	> 30 µM	
CCCCCCCCCCCCCCCCCCP(=O)(O)O [Compound 9d, n-octadecyl-phosphonate]			> 30 µM	> 30 µM	> 30 µM	> 30 µM	> 30 µM	> 30 µM	> 30 µM	EC50 (PC-3 cells; induction of Ca2+ transients, PC-3 cells, read-out: PC-3 EC50): > 30 µM
CCCCCCCCCCCCCCP(=O)(O)O [Compound 9c, n-tetradecyl-phosphonate]	4.62 µM	1.12 µM	3.1 µM	5.5 µM	> 30 µM	> 30 µM	9.67 µM	> 30 µM	~10 µM	effect at LPA2 in words (LPA2 [1]; Ca2+ transients, RH7777 cells expressing LPA2): IC50 values in the micromolar range; Ki (LPA2 [1]; inhibition of LPA-induced Ca2+ transients, RH7777 cells expressing LPA2): 3.55 µM; effect at LPA3 in words (LPA3 [2]; RH7777 cells expressing LPA3): IC50 values in the micromolar range; effect at LPA1 in words (LPA1 [3]; RH7777 cells expressing LPA1): IC50 values in the micromolar range
CCCCCCCCCCOP(=O)(O)O [Compound 2a]										EC50 (LPA1 [4]): > 30 µM; IC50 (LPA1 [4]): > 30 µM; EC50 (LPA3 [5]): > 30 µM; IC50 (LPA2 [6]): > 30 µM
CCCCCCCC/C=C\CCCCCCCC(=O)OC[C@@H](COP(O)(O)=S)OC [OMPT]										PPARγ activation (PPRE-Acox-Rluc reporter) in words (PPARγ): can activate PPRE-Acox-Rluc reporter
